Results from the supplement of paper PMC5662764.
± gives the standard deviation of the averaged measurements.

Tests used:
Test in all cases: normalised growth rate inhibition (GR value) relative to DMSO control (GR (1 = untreated growth, 0 = cytostasis, <0 = cytotoxic)); higher = less growth inhibition
Conditions in all cases: 72 h
MCF7 = tested on: MCF7
Outline: (§1)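 Drugs were added at 0.04–10 µM for 72 h to six breast cell lines that had been seeded 24 h earlier in 384-well plates. After Hoechst 33342 and Fixable Far Red Dead Cell Stain staining and 3% formaldehyde fixation, plates were imaged on an Operetta and viable cells counted in Columbus, with counts set against same-plate DMSO wells and a day-0 plate. The normalised growth rate inhibition values are means of technical plate replicates.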

HS578T = tested on: HS578T
Outline: as §1

MDAMB231 = tested on: MDAMB231
Outline: as §1

MCF10A = tested on: MCF10A
Outline: as §1

SKBR3 = tested on: SKBR3
Outline: as §1

BT20 = tested on: BT20
Outline: as §1

| Structure (SMILES) | normalised growth rate inhibition (MCF7; 0.04 µM) | normalised growth rate inhibition (MCF7; 0.12 µM) | normalised growth rate inhibition (MCF7; 0.37 µM) | normalised growth rate inhibition (MCF7; 1.11 µM) | normalised growth rate inhibition (MCF7; 3.33 µM) | normalised growth rate inhibition (MCF7; 10 µM) | normalised growth rate inhibition (HS578T; 0.04 µM) | normalised growth rate inhibition (HS578T; 0.12 µM) | normalised growth rate inhibition (HS578T; 0.37 µM) | normalised growth rate inhibition (HS578T; 1.11 µM) | normalised growth rate inhibition (HS578T; 3.33 µM) | normalised growth rate inhibition (HS578T; 10 µM) | normalised growth rate inhibition (MDAMB231; 0.04 µM) | normalised growth rate inhibition (MDAMB231; 0.12 µM) | normalised growth rate inhibition (MDAMB231; 0.37 µM) | normalised growth rate inhibition (MDAMB231; 1.11 µM) | normalised growth rate inhibition (MDAMB231; 3.33 µM) | normalised growth rate inhibition (MDAMB231; 10 µM) | normalised growth rate inhibition (MCF10A; 0.04 µM) | normalised growth rate inhibition (MCF10A; 0.12 µM) | normalised growth rate inhibition (MCF10A; 0.37 µM) | normalised growth rate inhibition (MCF10A; 1.11 µM) | normalised growth rate inhibition (MCF10A; 3.33 µM) | normalised growth rate inhibition (MCF10A; 10 µM) | normalised growth rate inhibition (SKBR3; 0.04 µM) | normalised growth rate inhibition (SKBR3; 0.12 µM) | normalised growth rate inhibition (SKBR3; 0.37 µM) | normalised growth rate inhibition (SKBR3; 1.11 µM) | normalised growth rate inhibition (SKBR3; 3.33 µM) | normalised growth rate inhibition (SKBR3; 10 µM) | normalised growth rate inhibition (BT20; 0.04 µM) | normalised growth rate inhibition (BT20; 0.12 µM) | normalised growth rate inhibition (BT20; 0.37 µM) | normalised growth rate inhibition (BT20; 1.11 µM) | normalised growth rate inhibition (BT20; 3.33 µM) | normalised growth rate inhibition (BT20; 10 µM) |
| --- | --- | --- | --- | --- | --- | --- | --- | --- | --- | --- | --- | --- | --- | --- | --- | --- | --- | --- | --- | --- | --- | --- | --- | --- | --- | --- | --- | --- | --- | --- | --- | --- | --- | --- | --- | --- |
| Nc1ccc(-c2ccc3ncc4ccc(=O)n(-c5cccc(C(F)(F)F)c5)c4c3c2)cn1 [torin-2] | -0.0044 ± 0.038 | -0.0152 ± 0.09 | -0.0495 ± 0.065 | -0.0476 ± 0.037 | -0.0446 ± 0.024 | -0.111 ± 0.026 | 0.192 ± 0.058 | 0.0992 ± 0.089 | -0.0345 ± 0.13 | -0.0453 ± 0.13 | -0.0773 ± 0.12 | -0.135 ± 0.14 | 0.225 ± 0.084 | 0.135 ± 0.11 | 0.0529 ± 0.1 | 0.0249 ± 0.13 | -0.112 ± 0.36 | -0.199 ± 0.18 | 0.169 ± 0.23 | 0.111 ± 0.1 | 0.0505 ± 0.063 | 0.0367 ± 0.05 | 0.0667 ± 0.053 | 0.0215 ± 0.048 | -0.135 ± 0.11 | -0.132 ± 0.11 | -0.158 ± 0.11 | -0.168 ± 0.13 | -0.21 ± 0.077 | -0.286 ± 0.19 | -0.0219 ± 0.046 | -0.0695 ± 0.021 | -0.128 ± 0.077 | -0.218 ± 0.081 | -0.287 ± 0.077 | -0.251 ± 0.1 |
| Cc1cc(Nc2cc(N3CCN(C)CC3)nc(Sc3ccc(NC(=O)C4CC4)cc3)n2)n[nH]1 [tozasertib] | 0.0704 ± 0.017 | 0.0656 ± 0.024 | 0.0723 ± 0.044 | 0.0794 ± 0.022 | 0.0768 ± 0.026 | 0.0394 ± 0.0083 | 0.123 ± 0.11 | 0.0776 ± 0.12 | 0.108 ± 0.13 | 0.0732 ± 0.11 | 0.105 ± 0.12 | 0.0498 ± 0.077 | 0.0769 ± 0.023 | 0.056 ± 0.045 | 0.0918 ± 0.037 | 0.0708 ± 0.039 | 0.0979 ± 0.038 | 0.1 ± 0.13 | 0.395 ± 0.2 | 0.145 ± 0.087 | 0.124 ± 0.056 | 0.118 ± 0.064 | 0.0967 ± 0.04 | 0.0692 ± 0.053 | -0.143 ± 0.11 | -0.117 ± 0.076 | -0.0975 ± 0.11 | -0.082 ± 0.1 | -0.0918 ± 0.1 | -0.044 ± 0.1 | 0.385 ± 0.12 | 0.0628 ± 0.1 | -0.0205 ± 0.094 | -0.0318 ± 0.12 | -0.0355 ± 0.11 | -0.0179 ± 0.11 |
| CC(=O)Nc1cccc(-n2c(=O)n(C3CC3)c(=O)c3c(Nc4ccc(I)cc4F)n(C)c(=O)c(C)c32)c1 [trametinib] | 0.364 ± 0.029 | 0.365 ± 0.027 | 0.36 ± 0.011 | 0.387 ± 0.03 | 0.427 ± 0.0076 | 0.425 ± 0.013 | 0.261 ± 0.05 | 0.203 ± 0.071 | 0.194 ± 0.091 | 0.186 ± 0.088 | 0.179 ± 0.075 | 0.198 ± 0.091 | 0.0906 ± 0.041 | 0.129 ± 0.1 | 0.117 ± 0.072 | 0.11 ± 0.072 | 0.11 ± 0.082 | 0.128 ± 0.11 | 0.152 ± 0.076 | 0.178 ± 0.068 | 0.182 ± 0.083 | 0.202 ± 0.071 | 0.206 ± 0.058 | 0.231 ± 0.058 | 0.503 ± 0.17 | 0.607 ± 0.08 | 0.565 ± 0.14 | 0.613 ± 0.11 | 0.624 ± 0.12 | 0.631 ± 0.16 | 0.71 ± 0.046 | 0.78 ± 0.049 | 0.743 ± 0.047 | 0.717 ± 0.053 | 0.683 ± 0.019 | 0.762 ± 0.066 |
| CCCS(=O)(=O)Nc1ccc(F)c(C(=O)c2c[nH]c3ncc(-c4ccc(Cl)cc4)cc23)c1F [vemurafenib] | 0.978 ± 0.017 | 1.02 ± 0.024 | 1.03 ± 0.015 | 1.01 ± 0.046 | 0.998 ± 0.022 | 0.858 ± 0.086 | 1.04 ± 0.014 | 1.03 ± 0.011 | 1.03 ± 0.038 | 1.01 ± 0.051 | 0.89 ± 0.075 | 0.548 ± 0.033 | 0.975 ± 0.042 | 0.965 ± 0.03 | 0.964 ± 0.025 | 0.897 ± 0.061 | 0.827 ± 0.064 | 0.422 ± 0.042 | 0.9898 ± 0.0042 | 0.9881 ± 0.0069 | 0.9871 ± 0.0051 | 0.955 ± 0.045 | 0.798 ± 0.14 | 0.462 ± 0.096 | 1.05 ± 0.069 | 1.03 ± 0.044 | 1.03 ± 0.04 | 1.01 ± 0.042 | 0.951 ± 0.046 | 0.805 ± 0.032 | 0.971 ± 0.051 | 0.968 ± 0.052 | 0.964 ± 0.035 | 0.949 ± 0.057 | 0.87 ± 0.031 | 0.582 ± 0.032 |
| CC1=C(CO)C(=O)O[C@@H]([C@@H](C)[C@H]2CC[C@H]3[C@@H]4C[C@H]5O[C@]56[C@@H](O)C=CC(=O)[C@]6(C)[C@H]4CC[C@]23C)C1 [withaferin-a] | 1.01 ± 0.055 | 0.907 ± 0.091 | 0.283 ± 0.09 | 0.0882 ± 0.037 | -0.196 ± 0.13 | -0.141 ± 0.099 | 1.01 ± 0.018 | 1.01 ± 0.02 | 0.944 ± 0.077 | -0.0869 ± 0.077 | -0.085 ± 0.037 | -0.287 ± 0.077 | 1.04 ± 0.053 | 1 ± 0.05 | 0.614 ± 0.16 | -0.0338 ± 0.067 | -0.143 ± 0.056 | -0.336 ± 0.097 | 0.9993 ± 0.0071 | 0.984 ± 0.025 | 0.861 ± 0.05 | -0.0779 ± 0.054 | -0.193 ± 0.15 | -0.244 ± 0.19 | 1.04 ± 0.063 | 0.892 ± 0.096 | 0.174 ± 0.15 | -0.104 ± 0.11 | -0.3 ± 0.086 | -0.278 ± 0.12 | 1.04 ± 0.038 | 0.99 ± 0.083 | 0.714 ± 0.13 | -0.105 ± 0.13 | -0.345 ± 0.065 | -0.283 ± 0.026 |
